Where “and” joins values, the source holds several entries; their conditions need not be identical. Equal entries are not always repeated.
Tested on: Swiss mice, Sarcoma 180 sc, mean tumor weight T/C
Assay: NCI In Vivo Anticancer Drug Screen. Data for tumor model Sarcoma 180 (subcutaneous) in Swiss mice
Conditions: endpoint: mean tumor weight, higher = larger tumour
Outline: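 Tumor-bearing mice, transplantable tumor; readout survival or tumor size; result = T/C, treated vs vehicle control.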

[1] = dose: 5.0 mg/kg/injection, schedule: Q01DX007 (ip), vehicle: carboxymethylcellulose (CMC)
[2] = dose: 7.0 mg/kg/injection, schedule: Q01DX007 (ip), vehicle: carboxymethylcellulose (CMC)
[3] = dose: 11.0 mg/kg/injection, schedule: Q01DX007 (ip), vehicle: carboxymethylcellulose (CMC)

Structure (SMILES): CC=C(/C(=C/C)c1ccc(O)cc1)c1ccc(O)cc1
- T/C (dose: 15.0 mg/kg/injection, schedule: Q01DX007 (ip), vehicle: carboxymethylcellulose (CMC)): 52 % of control
- T/C (dose: 20.0 mg/kg/injection, schedule: Q01DX007 (ip), vehicle: carboxymethylcellulose (CMC)): 42 % of control
- T/C (dose: 27.5 mg/kg/injection, schedule: Q#A X014 (ip), vehicle: carboxymethylcellulose (CMC)): 40 % of control and 54 % of control
- T/C (dose: 30.0 mg/kg/injection, schedule: Q01DX007 (ip), vehicle: carboxymethylcellulose (CMC)): 48 % of control
- T/C (dose: 44.0 mg/kg/injection, schedule: Q01DX007 (ip), vehicle: carboxymethylcellulose (CMC)): 31 % of control and 40 % of control
- T/C (dose: 66.0 mg/kg/injection, schedule: Q01DX007 (ip), vehicle: carboxymethylcellulose (CMC)): 35 % of control
- T/C (dose: 80.0 mg/kg/injection, schedule: Q01DX007 (sc), vehicle: carboxymethylcellulose (CMC)): 58 % of control
- T/C (dose: 80.0 mg/kg/injection, schedule: Q01DX007 (sc), vehicle: steriod suspending solution): 14 % of control
- T/C (dose: 94.0 mg/kg/injection, schedule: Q#A X014 (ip), vehicle: carboxymethylcellulose (CMC)): 50 % of control and 69 % of control
- T/C (dose: 100.0 mg/kg/injection, schedule: Q01DX007 (ip), vehicle: carboxymethylcellulose (CMC)): 52 % of control
- T/C (dose: 124.0 mg/kg/injection, schedule: Q01DX007 (ip), vehicle: carboxymethylcellulose (CMC)): 104 % of control
- T/C (dose: 150.0 mg/kg/injection, schedule: Q01DX007 (ip), vehicle: carboxymethylcellulose (CMC)): 39 % of control
- T/C (dose: 160.0 mg/kg/injection, schedule: Q01DX007 (sc), vehicle: carboxymethylcellulose (CMC)): 52 % of control
- T/C (dose: 160.0 mg/kg/injection, schedule: Q01DX007 (sc), vehicle: steriod suspending solution): 23 % of control
- T/C (dose: 188.0 mg/kg/injection, schedule: Q01DX007 (ip), vehicle: carboxymethylcellulose (CMC)): 84 % of control
- T/C (dose: 225.0 mg/kg/injection, schedule: Q01DX007 (ip), vehicle: carboxymethylcellulose (CMC)): 28 % of control and 31 % of control
- T/C (dose: 277.0 mg/kg/injection, schedule: Q01DX007 (ip), vehicle: carboxymethylcellulose (CMC)): 71 % of control
- T/C (dose: 281.0 mg/kg/injection, schedule: Q01DX007 (ip), vehicle: carboxymethylcellulose (CMC)): 63 % of control
- T/C (dose: 320.0 mg/kg/injection, schedule: Q01DX007 (sc), vehicle: carboxymethylcellulose (CMC)): 30 % of control
- T/C (dose: 320.0 mg/kg/injection, schedule: Q01DX007 (sc), vehicle: steriod suspending solution): 23 % of control
- T/C (dose: 333.0 mg/kg/injection, schedule: Q01DX007 (ip), vehicle: carboxymethylcellulose (CMC)): 29 % of control
- T/C (dose: 422.0 mg/kg/injection, schedule: Q01DX007 (ip), vehicle: carboxymethylcellulose (CMC)): 58 % of control and 65 % of control
- T/C (dose: 500.0 mg/kg/injection, schedule: Q01DX007 (ip), vehicle: carboxymethylcellulose (CMC)): 24 % of control and 38 % of control
- T/C (dose: 630.0 mg/kg/injection, schedule: Q01DX007 (ip), vehicle: carboxymethylcellulose (CMC)): 63 % of control
- T/C (dose: 640.0 mg/kg/injection, schedule: Q01DX007 (sc), vehicle: carboxymethylcellulose (CMC)): 47 % of control
- T/C (dose: 640.0 mg/kg/injection, schedule: Q01DX007 (sc), vehicle: steriod suspending solution): 17 % of control
- T/C (dose: 750.0 mg/kg/injection, schedule: Q01DX007 (ip), vehicle: carboxymethylcellulose (CMC)): 35 % of control
- T/C (dose: 945.0 mg/kg/injection, schedule: Q01DX007 (ip), vehicle: carboxymethylcellulose (CMC)): 44 % of control

Structure (SMILES): O=[As]O
- T/C (dose: 1.67 mg/kg/injection, schedule: Q01DX007 (ip), vehicle: carboxymethylcellulose (CMC)): 90 % of control
- T/C (dose: 3.12 mg/kg/injection, schedule: Q#A X014 (ip), vehicle: carboxymethylcellulose (CMC)): 121 % of control
- T/C (dose: 3.33 mg/kg/injection, schedule: Q01DX007 (ip), vehicle: carboxymethylcellulose (CMC)): 78 % of control
- T/C (dose: 3.37 mg/kg/injection, schedule: Q01DX007 (ip), vehicle: carboxymethylcellulose (CMC)): 98 % of control
- T/C [1]: 66 % of control
- T/C (dose: 6.25 mg/kg/injection, schedule: Q#A X014 (ip), vehicle: carboxymethylcellulose (CMC)): 99 % of control
- T/C (dose: 6.65 mg/kg/injection, schedule: Q01DX007 (ip), vehicle: carboxymethylcellulose (CMC)): 85 % of control
- T/C [2]: 90 % of control
- T/C (dose: 9.0 mg/kg/injection, schedule: Q01DX007 (ip), vehicle: carboxymethylcellulose (CMC)): 83 % of control
- T/C [3]: 64 % of control

Structure (SMILES): Cc1ncc(CO)c(CNC(=O)N(C)N=O)c1O
- T/C (dose: 62.0 mg/kg/injection, schedule: Q01DX007 (ip), vehicle: carboxymethylcellulose (CMC)): 60 % of control

Structure (SMILES): CSc1nc(C)c(Br)c(Sc2nc(N)nc3nc[nH]c23)n1
- T/C (dose: 4.0 mg/kg/injection, schedule: Q01DX007 (ip), vehicle: carboxymethylcellulose (CMC)): 91 % of control
- T/C [1]: 84 % of control
- T/C (dose: 5.5 mg/kg/injection, schedule: Q#A X014 (ip), vehicle: carboxymethylcellulose (CMC)): 43 % of control
- T/C (dose: 5.5 mg/kg/injection, schedule: Q#A X014 (ip), vehicle: methylcellulose (MC)): 24 % of control
- T/C (dose: 6.0 mg/kg/injection, schedule: Q01DX007 (ip), vehicle: carboxymethylcellulose (CMC)): 90 % of control
- T/C (dose: 6.2 mg/kg/injection, schedule: Q01DX007 (ip), vehicle: carboxymethylcellulose (CMC)): 77 % of control
- T/C [2]: 66 % of control
- T/C (dose: 8.5 mg/kg/injection, schedule: Q#A X014 (ip), vehicle: carboxymethylcellulose (CMC)): 33 % of control
- T/C (dose: 8.5 mg/kg/injection, schedule: Q#A X014 (ip), vehicle: methylcellulose (MC)): 57 % of control
- T/C [3]: 74 % of control
- T/C (dose: 12.5 mg/kg/injection, schedule: Q01DX007 (ip), vehicle: carboxymethylcellulose (CMC)): 69 % of control
- T/C (dose: 12.5 mg/kg/injection, schedule: Q#A X014 (ip), vehicle: carboxymethylcellulose (CMC)): 24 % of control
- T/C (dose: 12.5 mg/kg/injection, schedule: Q#A X014 (ip), vehicle: methylcellulose (MC)): 16 % of control
- T/C (dose: 17.0 mg/kg/injection, schedule: Q01DX007 (ip), vehicle: carboxymethylcellulose (CMC)): 31 % of control
- T/C (dose: 18.5 mg/kg/injection, schedule: Q#A X014 (ip), vehicle: carboxymethylcellulose (CMC)): 18 % of control
- T/C (dose: 18.5 mg/kg/injection, schedule: Q#A X014 (ip), vehicle: methylcellulose (MC)): 7 % of control
- T/C (dose: 25.0 mg/kg/injection, schedule: Q01DX007 (ip), vehicle: carboxymethylcellulose (CMC)): 20 % of control
- T/C (dose: 37.0 mg/kg/injection, schedule: Q01DX007 (ip), vehicle: carboxymethylcellulose (CMC)): 22 % of control
- T/C (dose: 40.0 mg/kg/injection, schedule: Q01DX007 (ip), vehicle: carboxymethylcellulose (CMC)): 52 % of control
- T/C (dose: 60.0 mg/kg/injection, schedule: Q01DX007 (ip), vehicle: carboxymethylcellulose (CMC)): 46 % of control

Structure (SMILES): CO[C@@]12[C@H](COC(N)=O)C3=C(C(=O)C(C)=C(N)C3=O)N1C[C@@H]1N[C@@H]12
- T/C (dose: 0.12 mg/kg/injection, schedule: Q#A X014 (ip), vehicle: carboxymethylcellulose (CMC)): 113 % of control
- T/C (dose: 0.25 mg/kg/injection, schedule: Q#A X014 (ip), vehicle: carboxymethylcellulose (CMC)): 73 % of control
- T/C (dose: 0.5 mg/kg/injection, schedule: Q#A X014 (ip), vehicle: carboxymethylcellulose (CMC)): 57 % of control
- T/C (dose: 1.5 mg/kg/injection, schedule: Q#A X014 (ip), vehicle: carboxymethylcellulose (CMC)): 39 % of control
- T/C (dose: 2.0 mg/kg/injection, schedule: Q#A X014 (ip), vehicle: carboxymethylcellulose (CMC)): 17 % of control
- T/C (dose: 262.0 micrograms/kg/injection, schedule: Q01DX007 (ip), vehicle: carboxymethylcellulose (CMC)): 69 % of control
- T/C (dose: 525.0 micrograms/kg/injection, schedule: Q01DX007 (ip), vehicle: carboxymethylcellulose (CMC)): 98 % of control
- T/C (dose: 1050.0 micrograms/kg/injection, schedule: Q01DX007 (ip), vehicle: carboxymethylcellulose (CMC)): 84 % of control
- T/C (dose: 2100.0 micrograms/kg/injection, schedule: Q01DX007 (ip), vehicle: carboxymethylcellulose (CMC)): 49 % of control

Structure (SMILES): C[C@]12CC[C@H](O)CC1=CC[C@@H]1[C@@H]2[C@@H](O)C[C@@]2(C)[C@H]1CC[C@]2(C)O
- T/C (dose: 25.0 mg/kg/injection, schedule: Q#A X014 (sc), vehicle: steriod suspending solution): 87 % of control
- T/C (dose: 100.0 mg/kg/injection, schedule: Q#A X014 (sc), vehicle: steriod suspending solution): 113 % of control
- T/C (dose: 200.0 mg/kg/injection, schedule: Q#A X014 (sc), vehicle: steriod suspending solution): 76 % of control

— PubChem BioAssay AID342 (DTP/NCI, 2004)
